# Tests used:
# [1] = siponimod single dose study (SAD study) in healthy volunteers; format: in vivo; details: healthy subjects
# [2] = tested on: Absolute Lymphocyte Count (ALC); assay: multiple ascending dosing study (MAD study) in healthy subjects: decline of Absolute Lymphocyte Count; format: in vivo, human; details: 0.3 mg to 10 mg dose
# Description: (§1) In another study in healthy subjects siponimod was administered in multiple doses, i.e. 0.3, 1, 2.5, 10 and 20 mg, over 28 days (multiple ascending dosing study, MAD study).
# Amongst the various potential factors which may contribute to the reduction of inflammation, and which may therefore contribute to the efficacy of a treatment by siponimod, one important factor is the reduction of the Absolute Lymphocyte Count (ALC), being ALC known to play an important role in the inflammatory processes, including those in the brain. The exact mechanism by which an S1P receptor modulation may mitigate stroke pathophysiology is/still not fully elucidated and thus, besides the Absolute Lymphocyte Count related effect (ALC-related effect), other potential mechanisms may play a role.
# [3] = multiple ascending dosing study (MAD study) in healthy subjects: adverse events; format: in vivo, human; details: 20 mg multiple dose over 28 days
# Description: as §1
# [4] = multiple-dose titration clinical study in healthy subjects: daily chronotropic effects (heart rate); format: in vivo, human
# Description: S1P receptor modulators, as mentioned above, are known to cause dose dependent transient decrease in heart rate within 2-3 hours of drug intake (Legangneux et al 2012, Hoch et al 2014). In order to evaluate on how to best mitigate the bradyarrhythmic risk of siponimod, a multiple-dose titration clinical study in healthy subjects was run.
# The primary objective of this study was to measure the daily chronotropic effects of two siponimod dose-titration regimens (from 0.25 mg to 10 mg; Dose Titration (DT) 1# and 2#, respectively) compared to daily chronotropic effects of oral siponimod 10 mg (fixed dose, once daily) and placebo over 12 days. The heart rate (HR) changes have been compared between subjects exposed to 10 mg siponimod once daily (QD) with or without 2 different up-titration schemes. The titration scheme of this study was: • DT 1#: Day 1: 0.25 mg; Day 2: 0.25 mg; Day 3: 0.25 mg; Day 4: 0.5 mg; Day 5: 1.0 mg; Day 6: 2.0 mg; Day 7: 4.0 mg; Day 8: 8.0 mg and from Day 9 to Day 12: 10.0 mg daily. • DT 2#: Day 1: 0.25 mg; Day 2: 0.25 mg; Day 3: 0.5 mg; Day 4: 0.75 mg; Day 5: 1.25 mg; Day 6: 2.0 mg; Day 7: 3.0 mg; Day 8: 5.0 mg; from Day 9 to Day 12: 10.0 mg daily.
# This effect was maintained until end of treatment on Day 12. […] It was then concluded that both titration regimens effectively attenuated the initial bradycardia observed on Day 1 of treatment with siponimod 10 mg daily fixed-dose.
# [5] = phase II dose finding study in relapsing-remitting multiple sclerosis (CBAF312A2201), MRI brain lesion parameters; format: in vivo, human; details: RRMS patients
# Description: In a phase II dose finding study of siponimod in patients with relapsing-remitting multiple sclerosis (CBAF312A2201) safety, tolerability and efficacy on magnetic resonance imaging (MRI) brain lesion parameters were evaluated. The dose response curve for the MRI-based efficacy of siponimod given orally once daily compared with placebo was determined.
# The dose-response curve as defined by the primary endpoint, favored the upper part of this range, i.e. a dose in the range of siponimod 2 mg, since efficacy seemed to decrease with lower doses. Siponimod achieved positive results in a clinical trial for the treatment of RRMS patients (Selmaj et al., Lancet Neurol, 2013, 12, 756-767) and is currently being investigated in an ongoing phase III study (EXPAND) in patients with SPMS. The dose of 2 mg of siponimod was the chosen dose for this follow up phase III study.
# [6] = i.v. versus oral siponimod study in healthy subjects (absolute bioavailability): pharmacokinetics; format: in vivo, human
# Description: (§2) A comparison of bradyarrhythmic effects (H R, AVB, SP) of a 1 mg oral dose from previous studies and a 1 mg/day i.v. dose infused over 24 h in healthy subjects supported the hypothesis that such effects are related to the slope of the concentration-time curve.
# In said study with siponimod administered intravenously, PK and PD were determined. […] This finding was consistent with previous oral administrations of 0.25 mg (starting dose of the oral initial period dosing regimen). The results of this clinical study were the following:
# (§3) The safety of the i.v. route in humans was supported by a local tolerance study in rabbit and cardiovascular safety studies in guinea pig, rat and rabbit using i.v. (bolus) route.
# [7] = tested on: Absolute Lymphocyte Count (ALC); assay: i.v. versus oral siponimod study in healthy subjects: PD (ALC) effects; format: in vivo, human; details: i.v. 0.25 mg over 3 hour and 1 mg over 24 hours vs oral doses at same dose levels
# Description: (§4) In said study with siponimod administered intravenously, PK and PD were determined. […] This finding was consistent with previous oral administrations of 0.25 mg (starting dose of the oral initial period dosing regimen).
# [8] = i.v. siponimod study in healthy subjects: cardiac safety; format: in vivo, human; details: i.v. 0.25 mg over 3 hours and 1 mg over 24 hours (4x0.25 mg/6 hours)
# Description: as §2, §4
# [9] = clinical study of siponimod pharmacokinetics in CYP2C9 poor metabolizers; format: in vivo, human; details: for AUC compared with reference AUC of extensive metabolizers (CYP2C9*1*1): poor metabolizers
# Text: In addition to the previously described benefits, the dosing regimen of the present disclosure has also the advantage to highly reduce the additional risks run by the CYP2C9 poor metabolizer.
# [10] = tested on: peripheral lymphocyte counts; assay: reduction and recovery of peripheral lymphocyte counts; format: in vivo
# Description: (§5) Siponimod is a second generation S1 P receptor modulator that reduces peripheral lymphocyte counts approximately 4-6 hours (h) after the first dose. […] Siponimod's mode of action is believed to include S1P1-mediated prevention of effector lymphocyte recirculation from lymphatic tissue to sites of inflammation, such as the central nervous system (CNS). In addition, there may be direct beneficial effects in the CNS mediated by S1P1 and/or S1P5. […] Thus, siponimod may display additional beneficial activities in the CNS.
# [11] = half-life and brain penetration of siponimod; details: in vivo
# Description: as §5
# [12] = randomized, placebo-controlled clinical study of siponimod in ischemic stroke, modified Rankin Scale; format: in vivo, human; details: two week treatment daily, 7 days i.v. with titration followed by 7 days p.o., 10 mg maintenance
# Text: The clinical study investigates the initial efficacy and safety of siponimod administered on top of standard-of-care compared to placebo in patients with ischemic stroke). This is a randomized, doubled-blinded, placebo-controlled, parallel group study of siponimod on top of standard-of-care for ischemic stroke, consisting of 3 epochs: Screening/Baseline, Treatment, and Follow-Up (see FIG. 1).
# These patients continue to be followed for the remainder of the assessment schedule (Table 3). i.v. Dose Titration
# The siponimod i.v. dosing regimen is as follows: • Day 1: 0.25 mg over 6 hours (×2), then 0.5 mg over 6 hours, then 0.75 mg over 6 hours for a total Day 1 dose of 1.75 mg • Day 2: 1.25 mg over 6 hours, then 2 mg over 6 hours, then 2.5 mg over 6 hours (×2) for a total Day 2 dose of 8.25 mg • Days 3 through Day 7: 2.5 mg over 6 hours (×4) for a total daily dose of 10 mg. • If patient can swallow then the administration from Day 8 to Day 14 is oral.
# The modified Rankin Scale (mRS), is a widely-used, clinician-assessed instrument, and is considered the current standard assessment for stroke outcomes by most Health Authorities. It consists of 6 grades of disability, higher scores indicating more severe disability (0=asymptomatic, 6=dead).
# The mRS score at 90 days after ischemic stroke is the primary endpoint for measuring siponimod efficacy in this study. […]
# [13] = in vivo, iv
# Text: as §3
# CYP2C9, CYP3A4 = details: humans; cited from earlier work
compound,measurement,setting,value
"CCc1cc(/C(C)=N/OCc2ccc(C3CCCCC3)c(C(F)(F)F)c2)ccc1CN1CC(C(=O)O)C1 [siponimod, 1-{4-[(1E)-N-{[4-cyclohexyl-3-(trifluoromethyl)benzyl]oxy}ethanimidoyl]-2-ethylbenzyl}-3-azetidine carboxylic acid]",safety and tolerability of the 25 mg single dose,[1]; 25 mg single dose,favorable safety and tolerability profile
same,single maximum tolerated dose (single MTD),[1]; single dose,25 mg
same,acute ALC response on Day 1 of treatment,[2],dose-dependent decline of ALC
same,adverse events at the maximum investigated multiple dose,[3],symptomatic bradycardia as the only relevant adverse event
same,reduction in heart rate vs. placebo,"[4]; Day 1, either titration regimen",no statistically significant reduction in heart rate vs. placebo
same,reduction in HR,"[4]; Days 3 to 7, DT 1# and DT 2#",minor reductions in HR
same,heart rates versus placebo,"[4]; by Day 9 until Day 12, both titration regimens",comparable to placebo
same,bradycardia or AV conduction effects,"[4]; dose titration regimens DT 1# and DT 2#, 0.25 mg to 10 mg, 12 days, healthy subjects",Neither DT 1# nor DT 2# resulted in clinically significant bradycardia or AV conduction effects
same,heart rates versus placebo,"[4]; non-titration regimen, 10 mg fixed dose once daily",considerable separation from placebo throughout the study
same,bradyarrhythmia at the starting dose,[4]; starting dose 0.25 mg of the DT regimens,not associated with bradyarrhythmia
same,MRI-based efficacy and safety of the dose range,[5]; 1.25 mg to 2 mg dose range orally once daily,"close to maximal efficacy, with a good safety profile"
same,MRI-based efficacy compared to 2 mg,[5]; 10 mg orally once daily,little additional efficacy compared to 2 mg
same,safety profile,[5]; 10 mg orally once daily,worse safety profile
same,dose and time dependence of pharmacokinetics,"[6]; human, in vivo",dose linear and time-independent pharmacokinetics
same,bioavailability,"[6]; human, in vivo, 0.25 mg, oral versus i.v., healthy subjects, read-out: oral bioavailability F %",84%
same,half-life,"[6]; human, in vivo, other: oral and intravenous (range over both routes), oral and i.v. route, read-out: terminal T1/2",27 to 33 h
same,median i.v. Tmax,[6]; i.v. infusion over 3 hours and 24 hours,at the end of the 3 hour and 24 hour infusions
same,geometric mean oral Cmax lower than mean i.v. Cmax,[6]; oral versus i.v.,~48%
same,"magnitude of PD (ALC) effects % Emax, i.v. versus oral",[7],comparable to the effects after oral doses at the same dose levels
same,cardiac safety profile of i.v. infusions,[8],excellent cardiac safety profile
same,Cmax in poor versus extensive metabolizers,[9]; CYP2C9 poor metabolizers,only slightly greater
same,Tmax in poor versus extensive metabolizers,[9]; CYP2C9 poor metabolizers,comparable in poor and extensive metabolizers
same,AUC compared with reference AUC of extensive metabolizers (CYP2C9*1*1),[9]; first value printed (first-named genotype CYP2C9*2*3),approximately 2 fold
same,AUC compared with reference AUC of extensive metabolizers (CYP2C9*1*1),[9]; second value printed (second-named genotype),~4 fold
same,time to reduction of peripheral lymphocyte counts after the first dose,[10]; after the first dose,4 to 6 h
same,recovery of the baseline lymphocyte counts,[10]; after treatment withdrawal,within a week after treatment withdrawal
same,crossing of the blood brain barrier,[11],readily crosses the blood brain barrier
same,"global functioning measured by modified Rankin Scale (mRS) score on Day 90 after ischemic stroke, compared to placebo",[12],improved global functioning
same,cardiovascular effects in i.v. cardiovascular safety studies,[13],Cmax-related transient cardiovascular effects
same,enzymes eliminating siponimod by metabolism,"CYP2C9, CYP3A4","mainly by CYP2C9, followed by CYP3A4"
